Laboratory results from ChEMBL document CHEMBL5257032, “Therapeutic potential of coumarins as antiviral agents” (Eur J Med Chem, 2016).
pEC50, pIC50, pKi: −log10 of the molar value. In brackets after ≈: the same amount, converted by molar mass. Several values for one entry are separate records, joined by “and”; a condition that tells them apart may be missing. Identical values can stand only once.

Key:
[1] = tested on: Human immunodeficiency virus 1; assay: Antiviral activity against HIV-1 infected in human Jurkat cells; assay type: functional, organism-based; conditions: Human immunodeficiency virus 1, Jurkat
[2] = Inhibition of Hepatitis C virus NS5B polymerase; parameters: species or system Hepacivirus hominis
[3] = tested on: Human immunodeficiency virus; assay: Antiviral activity against HIV; assay type: functional, organism-based; conditions: Human immunodeficiency virus 1
[4] = Therapeutic index, ratio of IC50 for cytotoxicity against human H9 cells to EC50 for antiviral activity against HIV-1 infected in H9 cells; assay type: toxicity, cell-based; conditions: read-out: Ratio IC50/EC50
[5] = tested on: Human immunodeficiency virus 1; assay: Antiviral activity against HIV-1 infected in human H9 cells; assay type: functional, organism-based; conditions: Human immunodeficiency virus 1, H9
Hepatitis C virus [6] = assay: Antiviral activity against HCV assessed as inhibition of RNA replication; assay type: functional, organism-based, Hepacivirus hominis
Hepatitis C virus [7] = assay: Antiviral activity against HCV assessed as inhibition of HCV RNA replication at 5.0 uM relative to control; assay type: functional, Hepacivirus hominis; parameters: scale not given: the % may be the effect or the level left
Human alphaherpesvirus 1 [8] = assay: Antiviral activity against Herpes simplex virus 1; assay type: functional, organism-based
[9] = biological target: Human immunodeficiency virus type 1 reverse transcriptase (Human immunodeficiency virus 1, UniProt Q72547); assay: Inhibition of HIV1 reverse transcriptase
[10] = tested on: Human immunodeficiency virus 1; assay: Antiviral activity against HIV-1 infected in CEM-SS cells; assay type: functional, organism-based; conditions: Human immunodeficiency virus 1, CEM-SS
Chikungunya virus [11] = assay: Antiviral activity against CHIKV; assay type: functional, organism-based
MT4 = assay: Cytotoxicity against human MT4 cells by MTT assay; assay type: functional; conditions: read-out: TD50 (the source's name)
[12] = tested on: Human immunodeficiency virus 1; assay: Antiviral activity against HIV-1 IIIB infected in human MT4 cells; assay type: functional, organism-based; conditions: Human immunodeficiency virus 1, IIIB
[13] = Antiviral activity against HIV-1 infected in human MT4 cells assessed as cell survival relative to control; assay type: functional, Human immunodeficiency virus 1
[14] = biological target: T1, Human immunodeficiency virus type 1 protease (Human immunodeficiency virus 1, UniProt Q72874); assay: (§1) Inhibition of HIV-1 protease
[15] = biological target: Human immunodeficiency virus type 1 protease (Human immunodeficiency virus 1) (UniProt Q72874); assay: Inhibition of HIV-1 protease relative to control; conditions: concentration not given here
[16] = biological target: T1, Human immunodeficiency virus type 1 protease; assay: Binding affinity to HIV-1 protease assessed as inhibition constant
Semliki Forest virus = assay: Antiviral activity against SFV; assay type: functional, organism-based
Chikungunya virus [17] = assay: Antiviral activity against CHIKV virus by CHIKV-Rluc assay; assay type: functional, organism-based
[18] = Binding affinity to HIV protease assessed as inhibition constant; parameters: species or system Human immunodeficiency virus
[19] = Inhibition of HIV1 integrase; parameters: species or system Human immunodeficiency virus 1
[20] = tested on: Human immunodeficiency virus 1; assay: Antiviral activity against HIV-1; assay type: functional, organism-based
[21] = biological target: Human immunodeficiency virus type 1 protease (Human immunodeficiency virus 1) (UniProt Q72874); assay: as §1
[22] = tested on: Human immunodeficiency virus; assay: Antiviral activity against HIV infected in human H9 cells; assay type: functional, organism-based; conditions: Human immunodeficiency virus 1, H9; read-out: EC50
[23] = Therapeutic index, ratio of IC50 for cytotoxicity against human H9 cells to EC50 for antiviral activity against HIV infected in H9 cells; assay type: toxicity, cell-based; conditions: read-out: Ratio IC50/EC50
H9 = assay: Cytotoxicity against human H9 cells; assay type: functional, cell-based
Hepatitis B virus = assay: Antiviral activity against HBV; assay type: functional, organism-based
Human alphaherpesvirus 1 [24] = assay: Antiviral activity against Herpes simplex virus 1 assessed as inhibition rate at 10 ug/ml relative to control; assay type: functional
Human alphaherpesvirus 1 [25] = assay: Antiviral activity against Herpes simplex virus 1 assessed as inhibition rate at 5 ug/ml relative to control; assay type: functional
Human alphaherpesvirus 1 [26] = assay: Antiviral activity against Herpes simplex virus 1 assessed as inhibition rate at 2.5 ug/ml relative to control; assay type: functional
Hepatitis C virus [27] = assay: Antiviral activity against HCV subtype 1b in Huh-5-2 cells; assay type: functional, organism-based, Hepacivirus hominis
[28] = Inhibition of HIV protease; parameters: species or system Human immunodeficiency virus
[29] = Half life in dog; assay type: ADME, Canis lupus familiaris; conditions: in vivo
[30] = tested on: Human immunodeficiency virus 1; assay: Antiviral activity against HIV-1 RTMDR1 infected in human MT4 cells; assay type: functional, organism-based; conditions: Human immunodeficiency virus 1, RTMDR1, MT4
[31] = Selectivity index, ratio of CC50 for cytotoxicity against human Ava5 cells to EC50 for antiviral activity against HCV; assay type: toxicity, cell-based; conditions: read-out: Ratio CC50/EC50
Human alphaherpesvirus 1 [32] = assay: Antiviral activity against Herpes simplex virus 1 assessed as reduction in number of plaques at 0.12 mg/ml relative to control; assay type: functional; parameters: scale not given: the % may be the effect or the level left
[33] = Cytotoxicity against African green monkey Vero cells; assay type: toxicity, cell-based; conditions: chlorocebus sabaeus, read-out: CD50 (the source's name)
Herpesviridae sp. = assay: Antiviral activity against Kaposi's sarcoma-associated herpesvirus; assay type: functional, organism-based
Human alphaherpesvirus 2 = assay: Antiviral activity against Herpes simplex virus 2; assay type: functional, organism-based
[34] = read-out: ED50 (the source's name)

Compound CC(C)=CCc1c(O)c(C(=O)C(C)C)c(O)c2c(-c3ccccc3)cc(=O)oc12 [MESUOL] has a pIC50 [1] of 5.70.
For COc1cc2c(cc1O)oc1c3ccc(O)cc3oc(=O)c21, the pIC50 [2] was 3.76.
With CSc1ccc(-c2cc3ccccc3oc2=O)cc1 the pIC50 [3] was 4.74.
For CC(=O)O[C@@H]1C(OCC(C)C)c2c(ccc3ccc(=O)oc23)OC1(C)C (single isomer, unassigned), the selectivity ratio [4] was 30.6 and the pEC50 ([5]; read-out: EC50) was 5.65.
Work on CC(=O)OC[C@H]1O[C@@H](n2c(SCc3cc4cc(Br)ccc4oc3=O)nc3ccccc32)[C@H](OC(C)=O)[C@@H](OC(C)=O)[C@@H]1OC(C)=O yielded a pEC50 (Hepatitis C virus [6]) of 5.39 and an Activity (Hepatitis C virus [7]) of 90%.
With COc1ccc(C2OC(COc3cc(=O)oc4ccccc34)=NN2C(C)=O)cc1 (stereo not drawn) the MIC (Human alphaherpesvirus 1 [8]) was 130 µg/mL (≈ 330 µM).
CC(C)=CCc1c(O)c(C(=O)C(C)C)c2oc(=O)cc(-c3ccccc3)c2c1O [ISOMESUOL] gave a pIC50 [1] of 5.70.
For CC1(C)Oc2ccc3ccc(=O)oc3c2[C@@H](OC(=O)[C@@]23CC[C@](C)(C(=O)O2)C3(C)C)[C@H]1OC(=O)C12CCC(C)(C(=O)O1)C2(C)C, the selectivity ratio [4] was 137000 and the pEC50 ([5]; read-out: EC50) was 9.59.
With COc1cc(O)c2c(c1)oc(=O)c1c3cc(O)c(O)cc3oc21 [WEDELOLACTONE] the pIC50 [2] was 4.44.
For CCCc1cc(=O)oc2c3c(c4c(c12)OC(C)(C)C=C4)O[C@H](C)[C@@H](C)[C@@H]3O [CALANOLIDE A], the pIC50 [9] was 4.70 and the pEC50 [10] was 7.00.
Work on CCN(CC)c1ccc2cc(C(=O)c3ccsc3)c(=O)oc2c1 yielded a pIC50 (Chikungunya virus [11]) of 5.29.
With CCC(Cc1ccccc1)c1cc(O)c(C(c2cccc(NC(=O)[C@H](Cc3c[nH]cn3)NC(=O)OC(C)(C)C)c2)C2CC2)c(=O)o1 (stereo partly drawn) the CC50 (MT4) was ≥ 30000 nM and the pIC50 [12] was 5.52.
CCCc1cc(=O)oc2c3c(c4c(c12)OC(C)(C)C=C4)O[C@H](C)[C@@H](C)[C@H]3O [(+)-CALANOLIDE B] gave a pIC50 [9] of 4.82 and a pEC50 [10] of 6.40.
CCOC(=O)C(C(C)=O)C(c1cccc([N+](=O)[O-])c1)c1c(O)c2ccccc2oc1=O (stereo not drawn) showed a Survival [13] of 78%, a pIC50 [14] of 11.00 and an inhibition [15] of 25%.
For CCC(Cc1ccccc1)c1cc(O)c(C(c2cccc(N[C@@H](C)C(=O)OC(C)(C)C)c2)C2CC2)c(=O)o1 (stereo partly drawn), the pKi [16] was 7.82.
In the case of CCN(CC)c1ccc2cc(-c3nc4ccccc4n3C)c(=O)oc2c1, the pIC50 (Semliki Forest virus) was 6.40 and the pIC50 (Chikungunya virus [17]) was 5.19.
Compound CCC(c1ccccc1)c1c(O)c2ccccc2oc1=O (stereo not drawn) [PHENPROCOUMON] has a pKi [18] of 6.00 and a pEC50 [3, 34] of 4.00.
COc1ccc(-c2c3c4cc(OC)c(OS(=O)(=O)O)cc4oc(=O)c3n3ccc4cc(OC)c(OC)cc4c23)cc1O gave a pIC50 [19] of 4.80.
O=c1oc2cc(O)c(O)cc2c2oc3cc4c(cc3c12)OCO4 showed a pIC50 [2] of 4.20.
In the case of Cc1cc(=O)oc2c1ccc1oc(C(=O)c3ccccc3)c(-c3ccccc3)c12, the pEC50 [20] was 8.89.
Work on O=c1oc2ccccc2c(O)c1C(c1ccc(C(c2c(O)c3ccccc3oc2=O)c2c(O)c3ccccc3oc2=O)cc1)c1c(O)c2ccccc2oc1=O yielded a pIC50 [14] of 4.94 and an ID50 [21] of 1700 nM.
For O=c1oc2ccc(Br)cc2cc1CSc1nc2cc(F)ccc2[nH]1, the pEC50 (Hepatitis C virus [6]) was 5.47.
With COc1cc2oc(=O)c3c4cc(OC)c(O)cc4oc3c2cc1O the pIC50 [2] was 3.51.
For CC(C)(C)OC(=O)NCCNc1cccc(C(c2c(O)c3c(oc2=O)CCCCCC3)C2CC2)c1 (stereo not drawn), the pKi [18] was 9.22 and 8.40 and the pIC50 [3] was 6.00.
For CC(C)=CCOc1c2occc2cc2ccc(=O)oc12 [PENTOSALEN], the EC50 [22] was < 0.1 µg/mL, the selectivity ratio [23] was > 1000 and the IC50 (H9) was > 100 µg/mL.
In the case of COc1c(OC/C=C(\C)CCC=C(C)C)ccc2ccc(=O)oc12 [COLLININ], the IC50 (Hepatitis B virus) was 17.1 µg/mL (≈ 52.1 µM).
In the case of CC(=O)O[C@@H]1CC[C@]2(C)[C@H](CC[C@](C)(O)[C@@H]2COc2ccc3ccc(=O)oc3c2)C1(C)C, the inhibition at 10 µg/mL (Human alphaherpesvirus 1 [24]) was 98%, the EC50 (Human alphaherpesvirus 1 [8]) was 38 µg/mL (≈ 85.9 µM) and the inhibition at 5 µg/mL (Human alphaherpesvirus 1 [25]) was 80%. For the same compound, the inhibition at 2.5 µg/mL (Human alphaherpesvirus 1 [26]) was 65%.
In the case of CCC(c1cccc(NS(=O)(=O)c2ccc(C#N)cn2)c1)c1c(O)c2c(oc1=O)CCCC2 (stereo not drawn), the pEC50 [5, 34] was 6.02 and the pKi [16] was 10.30.
For COc1ccc(/C=N\NC(=O)COc2cc(=O)oc3ccccc23)cc1, the MIC (Human alphaherpesvirus 1 [8]) was 200 µg/mL (≈ 568 µM).
O=c1oc2ccc(Br)cc2cc1CSc1ncc[nH]1 showed a pEC50 (Hepatitis C virus [27]) of 5.29.
For CC(=O)CC(c1ccccc1)c1c(O)c2ccccc2oc1=O (stereo not drawn) [WARFARIN], the pIC50 [28] was 4.52.
With COc1cc2c(cc1O)oc(=O)c1c3cc(O)c(O)cc3oc21 the pIC50 [2] was 4.73.
With O=c1oc2c(c(O)c1C(c1ccccc1)C1CC1)CCCCCC2 (stereo not drawn) the pKi [18] was 7.82 and the pIC50 [28] was 4.24.
N#Cc1ccc(S(=O)(=O)Nc2cccc(C(c3c(O)c4c(oc3=O)CCCCCC4)C3CC3)c2)cc1 (stereo not drawn) gave a pKi [18] of 9.10, a half-life [29] of 6 h and a pIC50 [3] of 5.82.
Work on CCc1cc(=O)c2ccc3c(c2o1)[C@@H](OC(=O)[C@@]12CC[C@](C)(C(=O)O1)C2(C)C)[C@@H](OC(=O)C12CCC(C)(C(=O)O1)C2(C)C)C(C)(C)O3 yielded a pEC50 [30] of 7.22.
Compound COc1cc(NCc2cc3ccccc3oc2=O)cc(OC)c1OC has a selectivity ratio [31] of 10.
For COc1ccc2c(O)c(-c3ccccc3)c(=O)oc2c1, the pIC50 [3] was 4.62.
O=C(COc1cc(=O)oc2ccccc12)NN1C(=O)CSC1c1ccc(Cl)cc1 (stereo not drawn) showed an Activity (Human alphaherpesvirus 1 [32]) of 30%, a CC50 [33] of 20 µg/mL (≈ 46.4 µM) and an MIC (Human alphaherpesvirus 1 [8]) of 120 µg/mL (≈ 279 µM).
For C=CC(C)(C)c1cc2cc3c(cc2oc1=O)OC(C(C)(C)OC(C)=O)C3 (stereo not drawn) [RUTAMARIN], the pEC50 (Herpesviridae sp.) was 5.79.
Compound O=c1oc2ccccc2c(O)c1C(c1ccc2c(c1)OCO2)c1c(O)c2ccccc2oc1=O has an ID50 [21] of 30000 nM.
Compound CCCc1cc(=O)oc2c3c(c4c(c12)OC(C)(C)C=C4)O[C@H](C)[C@@H](C)C3=O has a pIC50 [9] of 4.72 and a pEC50 [10] of 5.92.
CCC(Cc1ccccc1)c1cc(O)c(C(CC)c2ccccc2)c(=O)o1 (stereo not drawn) showed a pIC50 [20] of 5.52.
With COC1=CC(=O)c2cc(C)cc(-c3c(OC)cc(OC)c4ccc(=O)oc34)c2C1=O the EC50 (Human alphaherpesvirus 1 [8]) was 10 µg/mL (≈ 24.6 µM) and the EC50 (Human alphaherpesvirus 2) was 10 µg/mL (≈ 24.6 µM).
